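Where inhibition never reached the appropriate level, the endpoint shown equals the highest concentration tested. Otherwise, values were interpolated linearly from a five-concentration, 48-hour dose response in 96-well plates. GI50 marks 50% less growth.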 Activity calls are given as the source filed them. Rule as the data show it: active = GI50 up to about 1.1 µM and inactive = higher.
What was measured:
Assay in all cases: growth of human tumour cells (NCI), 48 h
[1] = system: 786-0
[2] = system: A498
[3] = system: A549
[4] = system: ACHN
[5] = system: BT-549
[6] = system: CAKI-1
[7] = system: CCRF-CEM
[8] = system: COLO 205
[9] = system: DU-145
[10] = system: EKVX
[11] = system: HCC 2998
[12] = system: HCT-116
[13] = system: HCT-15
[14] = system: HL-60
[15] = system: HOP-62
[16] = system: HOP-92
[17] = system: HT-29
[18] = system: Hs-578T
[19] = system: IGROV-1
[20] = system: K562
[21] = system: KM12
[22] = system: LOX IMVI
[23] = system: M14
[24] = system: MCF7
[25] = system: MDA-MB-231
[26] = system: MDA-MB-435
[27] = system: MDA-N
[28] = system: MOLT-4
[29] = system: Malme-3M
[30] = system: NCI-H226
[31] = system: NCI-H23
[32] = system: NCI-H460
[33] = system: NCI-H522
[34] = system: NCI/ADR-RES
[35] = system: OVCAR-3
[36] = system: OVCAR-4
[37] = system: OVCAR-5
[38] = system: OVCAR-8
[39] = system: PC-3
[40] = system: RPMI-8226
[41] = system: RXF 393
[42] = system: SF-268
[43] = system: SF-295
[44] = system: SF-539
[45] = system: SK-MEL-28
[46] = system: SK-MEL-2
[47] = system: SK-MEL-5
[48] = system: SK-OV-3
[49] = system: SN12C
[50] = system: SNB-19
[51] = system: SNB-75
[52] = system: SR
[53] = system: SW-620
[54] = system: T47D
[55] = system: TK-10
[56] = system: U-251
[57] = system: UACC-257
[58] = system: UACC-62
[59] = system: UO-31

`O=C1c2ccccc2-c2nnc(-c3ccc([N+](=O)[O-])cc3)cc21` was tested, and the GI50 [1] was > 10 µM (inactive), the GI50 [2] was > 10 µM (inactive) and the GI50 [3] was > 10 µM (inactive). The GI50 [4] was > 10 µM (inactive), the GI50 [5] was > 10 µM (inactive) and the GI50 [6] was > 10 µM (inactive). For the same compound, the GI50 [7] was > 10 µM (inactive), the GI50 [8] was > 10 µM (inactive) and the GI50 [9] was > 10 µM (inactive). The GI50 [10] was > 10 µM (inactive), the GI50 [11] was > 10 µM (inactive) and the GI50 [12] was > 10 µM (inactive). For the same compound, the GI50 [13] was > 10 µM, the GI50 [14] was > 10 µM (inactive) and the GI50 [15] was > 10 µM (inactive). The GI50 [16] was > 10 µM (inactive), the GI50 [17] was > 10 µM (inactive) and the GI50 [18] was > 10 µM (inactive). For the same compound, the GI50 [19] was > 10 µM (inactive), the GI50 [20] was > 10 µM (inactive) and the GI50 [21] was > 10 µM (inactive). For the same compound, the GI50 [22] was > 10 µM (inactive), the GI50 [23] was > 10 µM (inactive) and the GI50 [24] was > 10 µM (inactive). The GI50 [25] was > 10 µM (inactive), the GI50 [26] was > 10 µM (inactive) and the GI50 [27] was > 10 µM (inactive). For the same compound, the GI50 [28] was > 10 µM (inactive), the GI50 [29] was > 10 µM (inactive) and the GI50 [30] was > 10 µM (inactive). For the same compound, the GI50 [31] was > 10 µM (inactive), the GI50 [32] was > 10 µM (inactive) and the GI50 [33] was > 10 µM (inactive). For the same compound, the GI50 [34] was > 10 µM (inactive), the GI50 [35] was > 10 µM (inactive) and the GI50 [36] was > 10 µM (inactive). For the same compound, the GI50 [37] was > 10 µM (inactive), the GI50 [38] was > 10 µM (inactive) and the GI50 [39] was > 10 µM (inactive). The GI50 [40] was > 10 µM (inactive), the GI50 [41] was > 10 µM (inactive) and the GI50 [42] was > 10 µM (inactive). For the same compound, the GI50 [43] was > 10 µM (inactive), the GI50 [44] was > 10 µM (inactive) and the GI50 [45] was > 10 µM (inactive). The GI50 [46] was > 10 µM (inactive), the GI50 [47] was > 10 µM (inactive) and the GI50 [48] was > 10 µM (inactive). For the same compound, the GI50 [49] was > 10 µM (inactive), the GI50 [50] was > 10 µM (inactive) and the GI50 [51] was > 10 µM (inactive). The GI50 [52] was > 10 µM (inactive), the GI50 [53] was > 10 µM (inactive) and the GI50 [54] was > 10 µM (inactive). For the same compound, the GI50 [55] was > 10 µM (inactive), the GI50 [56] was > 10 µM (inactive) and the GI50 [57] was > 10 µM (inactive). For the same compound, the GI50 [58] was > 10 µM (inactive) and the GI50 [59] was > 10 µM (inactive).
`O=C1CSC(c2ccccc2O)N1c1nc2cc3sc(N4C(=O)CSC4c4ccccc4O)nc3cc2s1` (stereo not drawn) was tested, and the GI50 [1] was > 100 µM (inactive), the GI50 [2] was > 42.9 µM (inactive) and the GI50 [3] was 3.85 µM (inactive). For the same compound, the GI50 [4] was > 44.6 µM (inactive), the GI50 [5] was 11.9 µM (inactive) and the GI50 [6] was 37.4 µM (inactive). For the same compound, the GI50 [7] was 3.93 µM (inactive), the GI50 [8] was 3.61 µM (inactive) and the GI50 [9] was 34.7 µM (inactive). For the same compound, the GI50 [10] was 61.9 µM (inactive), the GI50 [11] was > 100 µM (inactive) and the GI50 [12] was 20.7 µM (inactive). The GI50 [13] was 7.05 µM, the GI50 [14] was 31.6 µM (inactive) and the GI50 [15] was > 100 µM (inactive). The GI50 [16] was > 42.5 µM (inactive), the GI50 [17] was 20 µM (inactive) and the GI50 [18] was > 58.9 µM (inactive). The GI50 [19] was 18.9 µM (inactive), the GI50 [20] was 64.3 µM (inactive) and the GI50 [21] was > 68.4 µM (inactive). The GI50 [22] was 24 µM (inactive), the GI50 [23] was > 69.5 µM (inactive) and the GI50 [24] was 11.5 µM (inactive). For the same compound, the GI50 [25] was > 57.8 µM (inactive), the GI50 [26] was 34.3 µM (inactive) and the GI50 [27] was 34.8 µM (inactive). For the same compound, the GI50 [28] was 4.06 µM (inactive), the GI50 [29] was > 77.3 µM (inactive) and the GI50 [30] was 21 µM (inactive). For the same compound, the GI50 [31] was 9.57 µM (inactive), the GI50 [32] was 2.3 µM (inactive) and the GI50 [33] was 7.06 µM (inactive). The GI50 [34] was 8.47 µM (inactive), the GI50 [35] was > 100 µM (inactive) and the GI50 [36] was 44.1 µM (inactive). The GI50 [37] was > 100 µM (inactive), the GI50 [38] was 37.2 µM (inactive) and the GI50 [39] was 45.7 µM (inactive). The GI50 [40] was 32.1 µM (inactive), the GI50 [41] was > 100 µM (inactive) and the GI50 [42] was > 86.9 µM (inactive). The GI50 [43] was > 100 µM (inactive), the GI50 [44] was 59.6 µM (inactive) and the GI50 [45] was > 79.1 µM (inactive). For the same compound, the GI50 [46] was > 100 µM (inactive), the GI50 [47] was 50.5 µM (inactive) and the GI50 [48] was > 100 µM (inactive). The GI50 [49] was > 40.5 µM (inactive), the GI50 [50] was 42 µM (inactive) and the GI50 [51] was 99.8 µM (inactive). For the same compound, the GI50 [52] was 7.71 µM (inactive), the GI50 [53] was 22.4 µM (inactive) and the GI50 [54] was 47.8 µM (inactive). The GI50 [55] was > 100 µM (inactive), the GI50 [56] was 36.3 µM (inactive) and the GI50 [57] was > 36.3 µM (inactive). For the same compound, the GI50 [58] was > 87.5 µM (inactive) and the GI50 [59] was 23.3 µM (inactive).

Source: ChEMBL document CHEMBL1201862, “PubChem BioAssay data set” (2004)
